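Test compounds were applied to cells in 96-well plates for 48 hours at 5 doses. At the GI50, growth is halved.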 Calls of active or inactive are those of the source. Rule as the data show it: active = GI50 up to about 1.1 µM and inactive = higher.
Assays:
Assay in all cases: NCI-60 cell line screen, 48 h
DMS-114 = test system: DMS-114
HOP-18 = test system: HOP-18
KM-20L2 = test system: KM-20L2
LXFL 529 = test system: LXFL 529
M19-MEL = test system: M19-MEL
RXF 631 = test system: RXF 631
SNB-78 = test system: SNB-78
XF498 = test system: XF498
DMS-273 = test system: DMS-273

Measured: GI50

CCc1ccccc1N1C(=O)C(=O)C(c2nc3ccccc3s2)C(=O)C1=O
inactive: DMS-114 79.3 µM | HOP-18 > 100 µM | KM-20L2 > 100 µM | LXFL 529 75.7 µM | M19-MEL > 100 µM | RXF 631 44.3 µM | SNB-78 > 100 µM | XF498 > 100 µM

OCCc1cnco1
inactive: DMS-114 > 100 µM | DMS-273 63.8 µM | HOP-18 > 100 µM | KM-20L2 > 100 µM | LXFL 529 > 100 µM | M19-MEL > 100 µM | SNB-78 > 100 µM

O=C(CSc1ncnc2[nH]cnc12)c1ccccc1
inactive: DMS-114 > 100 µM | DMS-273 > 100 µM | HOP-18 > 100 µM | KM-20L2 > 100 µM | LXFL 529 > 100 µM | M19-MEL > 100 µM | SNB-78 > 100 µM | XF498 > 100 µM

COc1cccc(NC(=O)CC(=O)N2N=C(N(CCC#N)c3ccccc3C)CC2c2ccccc2)c1 (stereo not given)
inactive: DMS-114 > 100 µM | DMS-273 > 100 µM | HOP-18 > 100 µM | KM-20L2 > 100 µM | LXFL 529 > 100 µM | M19-MEL > 100 µM | RXF 631 > 100 µM | SNB-78 > 100 µM

N#CC(C(=O)CCCC(=O)Nc1ccc(Cl)cc1Cl)c1ccc(Cl)cc1 (stereo not given)
inactive: DMS-273 > 100 µM | HOP-18 31.7 µM | KM-20L2 > 100 µM | LXFL 529 > 100 µM | RXF 631 > 100 µM | SNB-78 > 100 µM | XF498 > 100 µM

Nc1ccn(CCOC(=O)c2ccccc2)c(=O)n1
inactive: DMS-273 > 100 µM | HOP-18 > 100 µM | KM-20L2 > 100 µM | LXFL 529 > 100 µM | RXF 631 > 100 µM | SNB-78 > 100 µM

CCCCOCc1cc(CN2CCN(C)CC2)c(O)c2ncccc12
inactive: DMS-114 6.38 µM | DMS-273 12.1 µM | HOP-18 5.35 µM | KM-20L2 26.4 µM | LXFL 529 11.9 µM | M19-MEL 26.7 µM | RXF 631 53.7 µM | SNB-78 31 µM | XF498 30.8 µM

N#C/C(=C\c1ccccc1O)C(N)=O
inactive: DMS-114 44.6 µM | DMS-273 > 100 µM | KM-20L2 > 100 µM | LXFL 529 72.8 µM | M19-MEL > 100 µM | RXF 631 > 100 µM | SNB-78 46 µM | XF498 28.1 µM

O=C(Nc1ccccc1C(=O)O)C(=O)C(C(=O)c1ccccc1-c1ccccc1)C1OC(=O)c2ccccc21 (stereo not given)
inactive: DMS-273 26.5 µM | HOP-18 12.6 µM | KM-20L2 22 µM | LXFL 529 14.7 µM | M19-MEL 21.1 µM | SNB-78 > 100 µM | XF498 10.3 µM

CN(C)CCNC(=O)c1cccc2nc3cc(Cl)ccc3nc12
inactive: DMS-114 1.83 µM | DMS-273 1.98 µM | HOP-18 17.5 µM | KM-20L2 2.81 µM | LXFL 529 2.14 µM | M19-MEL 1.8 µM | SNB-78 2.65 µM

CC(=O)N(C)C=C1C(=O)N(C)C(=O)N(C)C1=O
inactive: DMS-114 > 100 µM | DMS-273 > 100 µM | HOP-18 > 100 µM | KM-20L2 > 100 µM | LXFL 529 > 100 µM | M19-MEL > 100 µM | RXF 631 > 100 µM | XF498 > 100 µM

COC1(OC)C2(Cl)C(Cl)=C(Cl)C1(Cl)C1C=CC=CC12 (stereo not given)
inactive: DMS-114 42.4 µM | DMS-273 60.8 µM | KM-20L2 35.2 µM | LXFL 529 > 100 µM | M19-MEL 44.9 µM | RXF 631 13.1 µM | SNB-78 > 100 µM | XF498 46.6 µM

O=C(O)CNc1c2ccccc2[n+]([O-])c2ccccc12
inactive: DMS-114 47.9 µM | DMS-273 81.8 µM | HOP-18 36.1 µM | KM-20L2 > 100 µM | LXFL 529 34.6 µM | M19-MEL > 100 µM | RXF 631 > 100 µM | SNB-78 > 100 µM

Cn1nc(-c2ccccc2)c(C(=O)/C=C/c2ccc(Cl)cc2)c(N2CCOCC2)c1=O
inactive: DMS-114 2.78 µM | DMS-273 3.3 µM | HOP-18 4.48 µM | KM-20L2 3.45 µM | LXFL 529 2.92 µM | M19-MEL 5.24 µM | RXF 631 4.79 µM

CN1C(=O)C2C3C=C4c5ccccc5N(c5ccccc5)C4(C2C1=O)[C@H]1C(=O)N(C)C(=O)[C@@H]31 (stereo not given in full)
inactive: DMS-114 66.4 µM | KM-20L2 > 100 µM | LXFL 529 > 100 µM | M19-MEL > 100 µM | XF498 > 100 µM

COc1ccc(-c2cc(O)c3cc4c(cc3n2)OCO4)c(OC)c1OC
inactive: DMS-114 29.4 µM | DMS-273 38.2 µM | HOP-18 96.6 µM | KM-20L2 > 100 µM | LXFL 529 > 100 µM | M19-MEL 95.1 µM | SNB-78 > 100 µM | XF498 66.5 µM

CCOC(=O)N1C(c2ccccc2)C=CC(c2ccccc2)N1C(=O)OCC (stereo not given)
inactive: DMS-114 > 100 µM | HOP-18 > 100 µM | KM-20L2 > 100 µM | M19-MEL > 100 µM | SNB-78 > 100 µM | XF498 > 100 µM

CC(C)(C)c1ccnc(/N=C2\N/C(=N\c3cc(C(C)(C)C)ccn3)c3ccccc32)c1
inactive: DMS-273 > 10 µM | HOP-18 18.3 µM | KM-20L2 13.9 µM | LXFL 529 41.9 µM | M19-MEL 33.1 µM | SNB-78 19.9 µM | XF498 15.5 µM

[N-]=[N+]=NC(CBr)c1cn([C@H]2C[C@H](O)[C@@H](CO)O2)c(=O)[nH]c1=O (stereo not given in full)
inactive: DMS-114 > 100 µM | DMS-273 > 100 µM | HOP-18 1.99 µM | KM-20L2 > 100 µM | LXFL 529 > 100 µM | M19-MEL > 100 µM | SNB-78 > 100 µM

COc1ccc(C(=O)C(C(=O)C(=O)Nc2nc3ccc(OC)cc3s2)c2ccc(OC)cc2)cc1 (stereo not given)
inactive: DMS-114 90.2 µM | DMS-273 > 100 µM | HOP-18 90.6 µM | KM-20L2 > 100 µM | LXFL 529 > 100 µM | M19-MEL > 100 µM | RXF 631 > 100 µM | SNB-78 > 100 µM | XF498 > 100 µM

COc1ccc(OC(C)C(=O)O)c2c(=O)ccccc12 (stereo not given)
inactive: DMS-114 > 100 µM | DMS-273 > 100 µM | KM-20L2 > 100 µM | LXFL 529 > 100 µM | M19-MEL > 100 µM | RXF 631 > 100 µM | SNB-78 > 100 µM | XF498 > 100 µM

c1ccc2cc3[s+]snc3cc2c1
inactive: DMS-273 > 100 µM | HOP-18 > 100 µM | KM-20L2 > 100 µM | LXFL 529 85.1 µM | M19-MEL > 100 µM | RXF 631 > 100 µM | SNB-78 > 100 µM | XF498 > 100 µM

CC(N)Cc1ccc(C(=O)Cl)cc1 (stereo not given)
inactive: DMS-114 > 100 µM | KM-20L2 > 100 µM | LXFL 529 > 100 µM | M19-MEL > 100 µM | RXF 631 > 100 µM | XF498 > 100 µM
